The text below walks through data of the NIST ThermoML archive (doi:10.1007/s10765-008-0514-x).

The data set in a line: cn = amount concentration of the nth substance listed, in mol/dm3. The note with it: 101 kPa, Liquid, c1 = 2.

Several values for one entry are separate records, joined by “and”; a condition that tells them apart may be missing. Identical values can stand only once. Numbers after ± are expanded uncertainties.

One may read the mass density as mass per unit of volume. In general, speed of sound refers to the propagation velocity of pressure waves in the medium. As for `[Cl-].[K+]` [potassium chloride] + O, the mass density is 1089.1 ± 1.7 kg/m3 (298.15 K); 1087.5 ± 1.8 kg/m3 (303.15 K); 1085.6 ± 1.9 kg/m3 (308.15 K); 1083.4 ± 1.9 kg/m3 (313.15 K); 1080.9 ± 2 kg/m3 (318.15 K); 1078.3 ± 2.1 kg/m3 (323.15 K). The speed of sound stood at 1595.2 ± 3.3 m/s (298.15 K); 1605.9 ± 3.3 m/s (303.15 K); 1610.2 ± 3.3 m/s (308.15 K); 1616.4 ± 3.4 m/s (313.15 K); 1621.4 ± 3.4 m/s (318.15 K); 1626.5 ± 3.4 m/s (323.15 K).
On to `O=[N+]([O-])[O-].[K+]` [potassium nitrate] + O, for which the mass density is, setting by setting: (298.15 K) 1122.9 ± 1.8 kg/m3; (303.15 K) 1120.6 ± 1.9 kg/m3; (308.15 K) 1118 ± 1.9 kg/m3; (313.15 K) 1115 ± 2 kg/m3; (318.15 K) 1111.8 ± 2.1 kg/m3; (323.15 K) 1108.2 ± 2.1 kg/m3. Also, the speed of sound is 1562 ± 3.3 m/s (298.15 K); 1569.4 ± 3.3 m/s (303.15 K); 1575.8 ± 3.3 m/s and 1575 ± 3.3 m/s (308.15 K); 1580 ± 3.3 m/s (313.15 K); 1584.6 ± 3.3 m/s and 1584.5 ± 3.3 m/s (318.15 K); 1588.9 ± 3.3 m/s and 1588.8 ± 3.3 m/s (323.15 K).
